Key:
[1] = test system: “anxiogenic” effects of CRF; details: cited from earlier work; for effect on the “anxiogenic” effects / actions of CRF in the conflict test: rats, given with CRF

Row | Compound | melting point [°C] | effect on the “anxiogenic” effects / actions of CRF in the conflict test [1] | behavioral activity alone in the operant conflict test ([1]; compound alone, without CRF)
1 | CCN1CCCn2c(=O)n(-c3ccc(C(C)C)cc3Br)c3nc(C)nc1c32 [Example 1, 2-(2-Bromo-4-isopropyl-phenyl)-6-ethyl-4-methyl-6,7,8,9-tetrahydro-2H-2,3,5,6,9a-pentaaza-benzo[cd]azulen-1-one] | 144.5 to 146 |  | 
2 | CNC(=O)c1cc2c(cn1)[nH]c1ccccc12 [FG7142] |  | enhanced the actions of CRF | 
3 | CCOC(=O)c1ncn2c1CN(C)C(=O)c1cc(F)ccc1-2 [Ro15-1788] |  | reversed the effects of CRF in a dose-dependent manner | without behavioral activity alone

From US20020022619A1, “Tricyclic fused pyridine and pyrimidine derivatives as CRF antagonists” (priority 2000, published 2002)
